The values below come from article PMC9538944, “In vitro biotransformation assays using fish liver cells: Comparing rainbow trout and carp hepatocytes” (Frontiers in Toxicology, 2022).

SMILES strings stand for the structures. Values joined by “and” are separate entries in the source; they are usually repeats but may differ in a detail not shown here. Identical values can stand only once. Like-named read-outs stand apart in the source and are kept apart here.

Data set [1] can be described thus: In vivo bioconcentration test OECD TG 305, carp. Particulars: common carp (Cyprinus carpio); for concentration at 40 d: day 40 (depuration); for concentration at 44 d: day 44 (depuration). Further details: species or system Cyprinus carpio. The procedure: (§1) In vivo BCF values for MXC and BaP in carp and trout were determined in bioconcentration tests with both species in accordance to OECD TG 305 ([OECD, 2012]). The studies were approved by the State Agency for Nature, Environment and Consumer Protection (LANUV) North Rhine-Westphalia. The fish were exposed to a single concentration of both test items in a flow-through system for 35 days. No control groups were used. Dosing was performed by a solid-phase desorption system which was integrated in the fresh water supply allowing for a constant delivery of test concentrations to the fish chambers. The procedure of column generated concentrations was described in detail by [Schlechtriem et al. (2017)]. For the present study, two packed columns containing each 500 g Florisil® loaded with 200 mg of either MXC or BaP were used for each fish chamber. The uptake (exposure) phase of the study was followed by a 35 days depuration phase in uncontaminated water. The flow-through rate was maintained at 38.6 L/h for carp and 30.1 L/h for trout throughout the test. […] Additional 2-4 fish were sampled each, at the start and at the end of the exposure period, as well as at the end of the depuration period for lipid analysis. The total lipid content of the fish was measured individually by gravimetric analysis according to [Smedes (1999)].
(§2) Water samples (400 ml) were taken from the test chambers at least three times per week. Preparation for chemical analysis was performed by liquid-liquid extraction using n-hexane (10 ml) containing deuterated MXC (35 ng). The purified organic phase was subdivided into two equal parts and evaporated to dryness under a stream of nitrogen. One part of the residue was dissolved in 200 µL DCM for MXC analysis. The other part was mixed with 1 ml ACN: water (8:2, v/v) and subjected to BaP analysis. Whole fish samples were prepared for chemical analysis individually. After grinding the tissue with the addition of dry ice in a Thermomix™ 31 (Vorwerk), the finely powdered homogenate was lyophilized using an AdVantage freeze dryer (Ismatec). Aliquots of the dry samples (0.5 g) were spiked with deuterated internal standards (5 ng MXC-d6 and 0.2 ng BaP-d12) and extracted three times with acetone: DCM (1:1, v/v) (10 ml). The pooled extracts were then extracted with ultra-pure water (45 ml) and mixed with sodium chloride (5 g) to remove acetone and matrix. The organic phase was concentrated (0.5 ml) and dissolved in cyclohexane: DCM (1:1, v/v) (4.2 ml). This was subjected to gel permeation chromatography (GPC) (GILSON system equipped with pump 307, syringe pump 402, GX-271 liquid handler, 508 interface module, and Trilution® LC software; column i. d. 1.5 cm, material Bio-Beads S-X3, 200–400 mesh, Bio-Rad, flow rate 2 ml/min). Eluates containing MXC (26–31 min retention time) and BaP (32–38 min retention time) were evaporated to dryness and dissolved in hexane (1 ml) and toluol (50 µL), respectively. The collected MXC extracts were further concentrated by solid-phase extraction (SPE, Sep-Pak® Vac 12cc, 2 g, silica cartridges, Waters) using DCM: n-hexane (50:50, v/v) as eluent. Eluent and hexane were used to equilibrate and condition the column before sample loading and subsequent washing with DCM: n-hexane (30:70, v/v). The eluate containing MXC was dried down and reconstituted in toluol (0.5 ml).
(§3) MXC in the organic phase of samples from the in vitro incubations and in DCM extracts of water samples from the in vivo bioconcentration tests were analyzed by gas chromatography-mass spectrometry (GC-MS). The GC-MS system consisted of a HP5890 series II GC coupled to a HP5972 mass sensitive detector (Hewlett-Packard). Separations were performed on 5% phenyl polysilphenylene-siloxane capillary columns (BPX-5, 30 m length x 0.25 mm i. d, 0.25 µm df, SGE). […]

The test system of data set [2] is common carp. Briefly: In vivo bioconcentration test OECD TG 305, carp. Particulars: for Cf data, concentration measured in individual fish: BaP background corrected. More on the design: species or system Cyprinus carpio. The procedure:
as §1, §2, §3

Details of data set [3]: method as in Fay et al., 2014b. Particulars: ref Fay et al., 2014b; cited from earlier work.
The mark [4] stands for this setting: in vivo, Cf data, concentration measured in individual fish.
The mark [5] stands for this setting: in vivo, common carp, day 7 (uptake), read-out: Mean Cf.
Setting [6] is: in vivo, common carp, day 14 (uptake), read-out: Mean Cf.
The mark [7] stands for this setting: in vivo, common carp, day 21 (uptake), read-out: Mean Cf.
Setting [8] is: in vivo, common carp, day 28 (uptake), read-out: Mean Cf.
The mark [9] stands for this setting: in vivo, common carp, day 35 (end of uptake), read-out: Mean Cf.
Setting [10] is: in vivo, common carp, read-out: Mean Cf.
[11] abbreviates: common carp (Cyprinus carpio), in vivo.
Setting [12] is: in vivo, common carp, BaP background corrected, read-out: Cf data, concentration measured in individual fish.

In data set [1] (setting [4]), `c1ccc2c(c1)cc1ccc3cccc4ccc2c1c34` [BaP, benzo[a]pyrene] returned a concentration at 7 d of 0.204 ng/g, a concentration at 14 d of 0.168 ng/g, a concentration at 21 d of 0.136 ng/g and a concentration at 28 d of 0.13 ng/g. In data set [1] (setting [4]), this molecule registered a concentration at 35 d of 0.149 ng/g. The concentration at 7 d in data set [1] (setting [5]) was found to be 0.216 ng/g. In addition, the concentration at 14 d in data set [1] (setting [6]) was determined as 0.172 ng/g. Moreover, the concentration at 21 d in data set [1] (setting [7]) came out at 0.154 ng/g. For the same molecule, the concentration at 28 d in data set [1] (setting [8]) is 0.148 ng/g. Besides, the concentration at 35 d in data set [1] (setting [9]) was 0.153 ng/g. Also, in data set [1] (setting [10]), the concentration at 40 d stood at 0.013 ng/g and the concentration at 44 d is 0.002 ng/g. For the same molecule, the concentration at 14 d in data set [1] (whole fish, other: exposure via water in a flow-through system, common carp, day 14 (uptake), BaP background corrected, read-out: Cf data, concentration measured in individual fish) came out at 0.141 ng/g. Further, in data set [2] (setting [11]), the “Cf,SS concentration in fish at steady-state” value was 0.157 µg/kg; the “kB, in vivo estimate Carp” value is 0.48 day⁻¹; the “kB, in vivo estimate, range of 95% probability” value was 0.16–1.4; the “kT depuration rate constant” value was found to be 0.493 day⁻¹. For the same molecule, the “kTG growth corrected depuration rate constant” value in data set [2] (setting [11]) turned out to be 0.482 day⁻¹. Further, in data set [2] (common carp (Cyprinus carpio), in vivo, 35 d), the “BCFSSL lipid-normalized steady-state bioconcentration factor” value came out at 73 L/kg. In addition, in data set [3], the “log KOW” value is on record as 5.99.

On to `COc1ccc(C(c2ccc(OC)cc2)C(Cl)(Cl)Cl)cc1` [MXC, methoxychlor], for which the concentration at 7 d turned out to be 12.8 ng/g in data set [1] (in vivo, common carp, day 7 (uptake), BaP background corrected, read-out: Cf data, concentration measured in individual fish) and 12.2 ng/g in data set [1] (setting [5]). Further, the concentration at 14 d turned out to be 11.4 ng/g in data set [1] (in vivo, common carp, day 14 (uptake), BaP background corrected, read-out: Cf data, concentration measured in individual fish) and 9.88 ng/g in data set [1] (setting [6]). Also, the concentration at 21 d in data set [1] (in vivo, common carp, day 21 (uptake), BaP background corrected, read-out: Cf data, concentration measured in individual fish) was determined as 9.16 ng/g; in data set [1] (setting [7]), 8.56 ng/g. The concentration at 28 d was 7.02 ng/g in data set [1] (in vivo, common carp, day 28 (uptake), BaP background corrected, read-out: Cf data, concentration measured in individual fish) and 6.94 ng/g in data set [1] (setting [8]). Also, the concentration at 35 d in data set [1] (in vivo, common carp, day 35 (end of uptake), BaP background corrected, read-out: Cf data, concentration measured in individual fish) stood at 8.35 ng/g; in data set [1] (setting [9]), 7.59 ng/g. Further, the results for the concentration at 40 d in data set [1] (setting [12]) and in data set [1] (setting [10]) were 3.02 ng/g and 2.4 ng/g, respectively. The concentration at 44 d in data set [1] (setting [12]) stood at 0.819 ng/g; in data set [1] (setting [10]), 0.757 ng/g. Moreover, the “Cf,SS concentration in fish at steady-state” value in data set [2] (common carp) is 8.24 µg/kg. For the same molecule, the “kT depuration rate constant” value in data set [2] (common carp) is 0.255 day⁻¹. For the same molecule, the “kTG growth corrected depuration rate constant” value in data set [2] (common carp) came out at 0.244 day⁻¹. Besides, the “BCFSSL lipid-normalized steady-state bioconcentration factor” value in data set [2] (common carp, 5% lipid content) came to 621 L/kg. In addition, the “Cf data, concentration measured in individual fish” value in data set [2] (common carp, day 7 (uptake)) is 11.7 µg/kg and 10.7 µg/kg and 13.8 µg/kg; in data set [2] (common carp, day 14 (uptake)) it was 9.30 µg/kg and 10.0 µg/kg and 8.83 µg/kg; in data set [2] (common carp, day 21 (uptake)), 9.96 µg/kg and 6.95 µg/kg and 8.16 µg/kg; in data set [2] (common carp, day 28 (uptake)), 5.90 µg/kg and 7.85 µg/kg and 7.00 µg/kg; in data set [2] (common carp, day 35 (end of uptake)), 7.32 µg/kg and 7.30 µg/kg and 7.40 µg/kg; in data set [2] (common carp, day 40 (depuration)), 2.71 µg/kg and 1.73 µg/kg and 2.16 µg/kg. Besides, in data set [2] (common carp, day 44 (depuration)), the “Cf data, concentration measured in individual fish” value is 0.719 µg/kg and 0.956 µg/kg and 0.535 µg/kg. Besides, the “log KOW” value in data set [3] is recorded as 5.08.
